Target: T1, human EP2 (PTGER2) (Homo sapiens, UniProt P43116)
T1 construct: Cayman Chemical (Human EP2 Reporter Assay Kit)
Assay: EP2 antagonist assay (HEK-293 CNG membrane potential cAMP assay / 293T SEAP reporter assay, PGE2-stimulated)
Type: cell-based
Conditions: EP2 antagonist activity; concentration for 50% inhibition of signal compared to DMSO
From the text: 1. The HEK-293 CNG (Cyclic Nucleotide Gated) cell line expressing a modified CNG channel that leads to cell membrane depolarization in response to elevated intracellular cAMP levels, which can be measured using a fluorescent membrane potential dye, was engineered to express human EP2 (PTGER2) or EP4 (EP4R). The resulting cell line ACTOne™ PTGER2 or ACTOne™ EP4R as well as the fluorescent membrane potential dye were purchased from eEnzyme (Gaithersburg, MD, US) and used in this assay. Briefly, cells were plated at 1.2×10^4 cells/well in 20 μL DMEM supplemented with 2% Fetal Bovine Serum (FBS, VWR International), 1x Penicillin/Streptomycin (GenClone), 0.2 μg/mL puromycin (InvivoGen) and 50 μg/mL G418 (InvivoGen) on a 384 well plate (Greiner). The next day, cells were dye-loaded with 20 μL/well of 1x Dye-loading solution (eENZYME) following the manufacturer's instruction. After 2 hours of incubation at room temperature (RT) in the dark, a pre-read was made to obtain the background signals using CLARIOstar plate reader (BMG LABTECH, Germany) with the following filter settings: excitation=530/20 nm, emission=590/20 nm. Next, a serial dilution of compound (plus a DMSO control) were added to the plate (5 μL/well) and the reaction was incubated at RT for 15 min before adding 5 μL of PGE2 to every well for a final concentration of 5 nM. All wells were duplicated. The plate was then further incubated at RT for 30 min prior to a final read with the same machine settings. Background-subtracted signals were used to calculate IC50 values.
2. Human EP2 and EP4 Reporter Assay Kits were purchased from Cayman Chemical (Ann Arbor, MI, USA). The assay was performed following the provided User Manual. Briefly, a reverse transfection was performed by seeding 6.0×10^4 of 293T cells (ATCC) to each well of the provided Strip Plate coated with a proprietary transfection complex containing DNA constructs for expressing human EP2 or EP4 and a cAMP response element regulated secreted alkaline phosphatase (SEAP) reporter, in 200 μL DMEM supplemented with 2% FBS and incubated for 20-24 hours at 37° C. with 5% CO2. After the incubation, the culture medium was carefully removed, and the cells were replenished with 150 μL pre-warmed serum-free medium. PGE2 and test compounds were prepared together at 4x the desired final concentration, and 50 μL was added to each assigned well with the final concentration of 13 nM and 2 nM PGE2 for EP2 and EP4 assay, respectively. After 6-8 hours of incubation, 10 μL media from each well was transferred to corresponding well of a new plate, which was then sealed and incubated at 65° C. for 30 min. The plate was then cooled down to RT and 50 μL SEAP substrate was added to each well. Luminescence signal was measured using a CLARIOstar plate reader.
The IC50 value was determined as the concentration for 50% inhibition of signal compared to DMSO (A: IC50 […]; B: IC50 between 100 nM and 1,000 nM; C: IC50≥1,000 nM).

T1 sequence (P43116 whole entry): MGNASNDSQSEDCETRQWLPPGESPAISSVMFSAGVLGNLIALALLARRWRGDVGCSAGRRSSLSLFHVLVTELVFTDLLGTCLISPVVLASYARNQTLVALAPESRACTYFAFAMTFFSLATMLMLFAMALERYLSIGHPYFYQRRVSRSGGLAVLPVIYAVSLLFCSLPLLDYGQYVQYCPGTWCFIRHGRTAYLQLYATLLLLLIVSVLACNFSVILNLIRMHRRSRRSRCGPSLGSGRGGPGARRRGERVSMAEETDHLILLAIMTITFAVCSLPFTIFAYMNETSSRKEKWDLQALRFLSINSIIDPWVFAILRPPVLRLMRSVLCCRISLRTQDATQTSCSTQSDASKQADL

| SMILES | IC50 [nM] |
| --- | --- |
| O=C(NC1CC2(C1)CC(C(=O)O)C2)c1cc(Br)cc2[nH]cc(Sc3ccc(C(F)(F)F)cc3)c12 (racemic) [Example 112, (+) 6-(6-bromo-3-((4-(trifluoromethyl)phenyl)thio)-1H-indole-4-carboxamido)spiro[3.3]heptane-2-carboxylic acid] | 100 to 1000 |
| O=C(NC1CC2(C1)CC(C(=O)O)C2)c1cc(-c2ccccc2)cc2[nH]cc(Sc3ccc(C(F)(F)F)cc3)c12 (racemic) [Example 113, (±) 6-(6-phenyl-3-((4-(trifluoromethyl)phenyl)thio)-1H-indole-4-carboxamido)spiro[3.3]heptane-2-carboxylic acid] | < 100 |
| N#Cc1cccc(-c2cc(C(=O)NC3CC4(C3)CC(C(=O)O)C4)c3c(Sc4ccc(C(F)(F)F)cc4)c[nH]c3c2)c1 (racemic) [Example 114, (±) 6-(6-(3-cyanophenyl)-3-((4-(trifluoromethyl)phenyl)thio)-1H-indole-4-carboxamido)spiro[3.3]heptane-2-carboxylic acid] | < 100 |
| NC(=O)c1cccc(-c2cc(C(=O)NC3CC4(C3)CC(C(=O)O)C4)c3c(Sc4ccc(C(F)(F)F)cc4)c[nH]c3c2)c1 (racemic) [Example 115, (±) 6-(6-(3-carbamoylphenyl)-3-((4-(trifluoromethyl)phenyl)thio)-1H-indole-4-carboxamido)spiro[3.3]heptane-2-carboxylic acid] | 100 to 1000 |
| CC(c1ccc(C(F)(F)F)cc1)n1ccc2cc(-c3ccccc3)cc(C(=O)NCc3ccc(C(=O)O)cc3)c21 (racemic) [Example 178, (±) 4-((5-phenyl-1-(1-(4-(trifluoromethyl)phenyl)ethyl)-1H-indole-7-carboxamido)methyl)benzoic acid] | < 100 |
| CC(NC(=O)c1cc(-c2ccccc2)cc2cnn(Cc3cccc(C(F)(F)F)c3)c12)[C@H]1CC[C@H](C(=O)O)CC1 (mixture of isomers) [Example 222, (±) (1r,4r)-4-1-(5-phenyl-1-(3-(trifluoromethyl)benzyl)-1H-indazole-7-carboxamido)ethyl)cyclohexane-1-carboxylic acid] | < 100 |
| C[C@@H](NC(=O)c1cc(-c2ccc(F)cc2)cc2ccn(Cc3ccc(C(F)(F)F)cc3)c12)c1ccc(C(=O)O)cc1 [Example 3, (R)-4-(1-(5-(4-fluorophenyl)-1-(4-(trifluoromethyl)benzyl)-1H-indole-7-carboxamido)ethyl)benzoic acid] | ≥ 1000 |
| C[C@@H](NC(=O)c1cc(-c2ccccc2)cc2ccn(Cc3ccc(C(F)(F)F)cc3)c12)c1ccc(C(=O)O)cc1 [Example 4, (R)-4-(1-(5-phenyl-1-(4-(trifluoromethyl)benzyl)-1H-indole-7-carboxamido)ethyl)benzoic acid] | ≥ 1000 |
| O=C(O)c1ccc(C2(NC(=O)c3cc(-c4ccc(F)cc4)cc4ccn(Cc5ccc(C(F)(F)F)cc5)c34)CC2)cc1 [Example 5, 4-(1-(5-(4-fluorophenyl)-1-(4-(trifluoromethyl)benzyl)-1H-indole-7-carboxamido)cyclopropyl)-benzoic acid] | 100 to 1000 |
| O=C(O)c1ccc(C2(NC(=O)c3cc(-c4ccccc4)cc4ccn(Cc5ccc(C(F)(F)F)cc5)c34)CC2)cc1 [Example 6, 4-(1-(5-phenyl-1-(4-(trifluoromethyl)benzyl)-1H-indole-7-carboxamido)cyclopropyl)benzoiacid] | 100 to 1000 |
| O=C(O)c1ccc(CNC(=O)c2cc(-c3ccc(F)c(F)c3)cc3ccn(Cc4ccc(C(F)(F)F)cc4)c23)cc1 [Example 8, 4-((5-(3,4-difluorophenyl)-1-(4-(trifluoromethyl)benzyl)-1H-indole-7-carboxamido)methyl)benzoic acid] | < 100 |
| O=C(O)c1ccc(CNC(=O)c2cc(-c3cccc(C(F)(F)F)c3)cc3ccn(Cc4ccc(C(F)(F)F)cc4)c23)cc1 [Example 10, 4-((1-(4-(trifluoromethyl)benzyl)-5-(3-(trifluoromethyl)phenyl)-1H-indole-7-carboxamido)methyl)benzoic acid] | 100 to 1000 |
